Key:
T47D cells = assay: Cell Proliferation Assay (GI50), sulforhodamine B (SRB) assay; format: cell-based; details: for GI50: Homo sapiens, 120 hours, SRB
Procedure: Cell growth was assessed using the sulforhodamine B (SRB) assay (A). T47D (ECACC, 85102201) cells were routinely passaged in RPMI (Invitrogen, 42401018) plus 10% foetal calf serum (FCS), 1% L-glutamine (Gibco BRL, 25030) to a confluence not greater than 80%. To undertake the assay, T47D cells were seeded at 2.5×10^3 cells/well in […] RPMI plus 10% foetal calf serum, 1% L-glutamine in 96 well plates (Costar, 3904) and incubated at 37° C. (+5% CO2) in a humidified incubator. Once the cells had fully adhered (typically following 4-5 hours incubation) the plate was removed from the incubator and 10 μL of the diluent added to the control wells (A1-12 and B1-12). Compound was prepared in a six point semi-log dilution at 10× the final concentration required e.g. for a 6 point range of 30 μM to 100 nM in semi-log steps dilution started at 300 μM in stock plate. Dosing was completed by addition of 10 μL of compound at highest concentration to C1-12 through to the lowest concentration in H1-12. The plates were then incubated for 120 hours prior to SRB analysis.
Upon completion of incubation, media was removed and the cells fixed with […] of ice cold 10% (w/v) trichloroacetic acid. The plates were incubated at 4° C. for 20 minutes and then washed four times with water. Each well of cells was then stained with 100 μl of 0.4% (w/v) SRB (Sulforhodamine B, Sigma, Poole, Dorset, UK, Catalogue number S-9012) in 1% acetic acid for 20 minutes before washing four times with 1% acetic acid. Plates were then dried for 2 hours at room temperature. The dye from the stained cells was solubilized by the addition of 100 μl of 10 mM Tris Base into each well. Plates were gently shaken and left at room temperature for 30 minutes before measuring the optical density at 564 nm on a Microquant microtiter plate reader. The concentration of inhibitor eliciting a 50% reduction in growth (GI50) was determined by analysis of staining intensity of the treated cells as a percentage of the vehicle control wells using Excelfit software.
(A) Skehan, P., Storung, R., Scudiero, R., Monks, A., McMahon, J., Vistica, D., Warren, J. T., Bokesch, H., Kenny, S. and Boyd, M. R. (1990) New […] cytotoxicity assay for anticancer-drug screening. J. Natl. Cancer Inst. 82, 1107-1112.

mTOR = biological target: T1, mTOR (Homo sapiens, UniProt P42345); assay: Biological Assay: mTOR enzyme activity, mTOR immunoprecipitated from HeLa cell cytoplasmic extract, recombinant PHAS-1 as substrate; format: biochemical; details: Biological Assay; for IC50: upper bounds, read-out: IC50 values against mTOR
T1 construct: mTOR protein was isolated from HeLa cell cytoplasmic extract by immunoprecipitation; endogenous in cells; host or cells: HeLa cell cytoplasmic extract (immunoprecipitate)
From the text: For mTOR enzyme activity assays, mTOR protein was isolated from HeLa cell cytoplasmic extract by immunoprecipitation, and activity determined essentially as described previously using recombinant PHAS-1 as a substrate (ref. 21).

| Structure (SMILES) | GI50 of Comparative Examples compared to the corresponding Examples (T47D cells; comparison in words) | IC50 of Comparative Examples compared to the corresponding Examples (mTOR; comparison in words) | GI50 (T47D cells; upper bounds) [nM] | IC50 (mTOR) [nM] | GI50 (T47D cells) [nM] |
| --- | --- | --- | --- | --- | --- |
| COc1ccc(-c2ccc3c(N4CCOCC4)nc(N4CCOC[C@@H]4C)nc3n2)cc1CO [Comparative Example 1a, reference compound] | GI50 Comparative Example 1a>GI50 Example 11a | IC50 Comparative Example 1a>IC50 Example 11a |  |  |  |
| C[C@H]1CCCCN1c1nc(N2CCOCC2)c2ccc(-c3ccc(Cl)cc3)nc2n1 [Example 1g] |  |  | < 300 | < 100 |  |
| C[C@@H]1CN(c2nc(N3CCOCC3)c3ccc(-c4ccco4)nc3n2)C[C@H](C)O1 [Example 1r] |  |  |  | < 1000 | 232 |
| COc1ccc(-c2ccc3c(N4CCOCC4)nc(N4C[C@@H](C)O[C@@H](C)C4)nc3n2)cc1CNC1CCC1 [Example 8a] |  |  | < 300 | < 100 |  |
| COc1ccc(-c2ccc3c(N4CCOCC4)nc(N4C[C@@H](C)O[C@@H](C)C4)nc3n2)cc1CNCC1CCCCC1O (stereo partly shown) [Example 8aa] |  |  |  | < 100 | < 1000 |
| COc1ccc(-c2ccc3c(N4CCOCC4)nc(N4C[C@@H](C)O[C@@H](C)C4)nc3n2)cc1CNCC1CCCCCC1O (stereo partly shown) [Example 8ab] |  |  | < 300 | < 100 |  |
| CCOC(=O)C1CCCCC1NCc1cc(-c2ccc3c(N4CCOCC4)nc(N4C[C@@H](C)O[C@@H](C)C4)nc3n2)ccc1OC (stereo partly shown) [Example 8ac] |  |  |  | < 100 | < 1000 |
| COc1ccc(-c2ccc3c(N4CCOCC4)nc(N4C[C@@H](C)O[C@@H](C)C4)nc3n2)cc1CNCCSCCO [Example 8ad] |  |  | < 300 | < 100 |  |
| COc1ccc(-c2ccc3c(N4CCOCC4)nc(N4C[C@@H](C)O[C@@H](C)C4)nc3n2)cc1CNCCSCc1ccc(CN(C)C)o1 [Example 8ae] |  |  | < 300 | < 1000 |  |
| C=CCOC(=O)[C@H](CC(C)C)NCc1cc(-c2ccc3c(N4CCOCC4)nc(N4C[C@@H](C)O[C@@H](C)C4)nc3n2)ccc1OC [Example 8af] |  |  | < 300 | < 1000 |  |
| COc1ccc(-c2ccc3c(N4CCOCC4)nc(N4C[C@@H](C)O[C@@H](C)C4)nc3n2)cc1CNC1CCCC(C)C1C (stereo partly shown) [Example 8ag] |  |  | < 300 | < 100 |  |
| COc1ccc(-c2ccc3c(N4CCOCC4)nc(N4C[C@@H](C)O[C@@H](C)C4)nc3n2)cc1CNCc1ccc(F)cc1 [Example 8ah] |  |  | < 300 | < 100 |  |
| COc1ccc(-c2ccc3c(N4CCOCC4)nc(N4C[C@@H](C)O[C@@H](C)C4)nc3n2)cc1CNCCC1CCCN1C (stereo partly shown) [Example 8ai] |  |  | < 300 | < 100 |  |
| COc1ccc(-c2ccc3c(N4CCOCC4)nc(N4C[C@@H](C)O[C@@H](C)C4)nc3n2)cc1CNCC1CCCO1 (stereo partly shown) [Example 8aj] |  |  | < 300 | < 100 |  |
| CCSCCNCc1cc(-c2ccc3c(N4CCOCC4)nc(N4C[C@@H](C)O[C@@H](C)C4)nc3n2)ccc1OC [Example 8ak] |  |  | < 300 | < 100 |  |
| COc1ccc(-c2ccc3c(N4CCOCC4)nc(N4C[C@@H](C)O[C@@H](C)C4)nc3n2)cc1CNc1cc[nH]n1 [Example 8al] |  |  | < 300 | < 100 |  |
| COc1ccc(-c2ccc3c(N4CCOCC4)nc(N4C[C@@H](C)O[C@@H](C)C4)nc3n2)cc1CNC(=S)N1CCCCC1 [Example 8am] |  |  | < 300 | < 1000 |  |
| COc1ccc(-c2ccc3c(N4CCOCC4)nc(N4C[C@@H](C)O[C@@H](C)C4)nc3n2)cc1CNCCc1cccs1 [Example 8an] |  |  | < 300 | < 100 |  |
| COC(=O)[C@H](NCc1cc(-c2ccc3c(N4CCOCC4)nc(N4C[C@@H](C)O[C@@H](C)C4)nc3n2)ccc1OC)c1ccccc1 [Example 8ao] |  |  | < 300 | < 1000 |  |
| COc1ccc(-c2ccc3c(N4CCOCC4)nc(N4C[C@@H](C)O[C@@H](C)C4)nc3n2)cc1CNCc1cccc(CN)c1 [Example 8ap] |  |  | < 300 | < 100 |  |
| COc1ccc(-c2ccc3c(N4CCOCC4)nc(N4C[C@@H](C)O[C@@H](C)C4)nc3n2)cc1CNC(C)CO (stereo partly shown) [Example 8aq] |  |  | < 300 | < 100 |  |
| COc1ccc(-c2ccc3c(N4CCOCC4)nc(N4C[C@@H](C)O[C@@H](C)C4)nc3n2)cc1CNC(Cc1ccc(O)cc1)C(=O)O (stereo partly shown) [Example 8ar] |  |  | < 300 | < 100 |  |

| Structure (SMILES) | GI50 of Comparative Examples compared to the corresponding Examples (T47D cells; comparison in words) | IC50 of Comparative Examples compared to the corresponding Examples (mTOR; comparison in words) | GI50 (T47D cells; upper bounds) [nM] | IC50 (mTOR) [nM] | GI50 (T47D cells) [nM] |
| --- | --- | --- | --- | --- | --- |
| COc1ccc(-c2ccc3c(N4CCOCC4)nc(N4C[C@@H](C)O[C@@H](C)C4)nc3n2)cc1CNCCCCCNC(=O)OC(C)(C)C [Example 8as] |  |  | < 300 | < 100 |  |
| COc1ccc(-c2ccc3c(N4CCOCC4)nc(N4C[C@@H](C)O[C@@H](C)C4)nc3n2)cc1CNCc1cccc([N+](=O)[O-])c1 [Example 8at] |  |  | < 300 | < 1000 |  |
| COc1ccc(-c2ccc3c(N4CCOCC4)nc(N4C[C@@H](C)O[C@@H](C)C4)nc3n2)cc1CN[C@H](C)c1ccc([N+](=O)[O-])cc1 [Example 8au] |  |  | < 300 | < 1000 |  |
| COc1ccc(-c2ccc3c(N4CCOCC4)nc(N4C[C@@H](C)O[C@@H](C)C4)nc3n2)cc1CNC1CCc2ccccc21 (stereo partly shown) [Example 8av] |  |  | < 300 | < 100 |  |
| COc1ccc(-c2ccc3c(N4CCOCC4)nc(N4C[C@@H](C)O[C@@H](C)C4)nc3n2)cc1CNCc1ccc([35Cl])cc1[35Cl] [Example 8aw] |  |  | < 300 | < 100 |  |
| COc1ccc(-c2ccc3c(N4CCOCC4)nc(N4C[C@@H](C)O[C@@H](C)C4)nc3n2)cc1CNCc1ccccc1[35Cl] [Example 8ax] |  |  | < 300 | < 100 |  |
| COc1ccc(-c2ccc3c(N4CCOCC4)nc(N4C[C@@H](C)O[C@@H](C)C4)nc3n2)cc1CNc1ccc(N2CCOCC2)cc1 [Example 8ay] |  |  | < 300 | < 1000 |  |
| COc1ccc(-c2ccc3c(N4CCOCC4)nc(N4C[C@@H](C)O[C@@H](C)C4)nc3n2)cc1CNC(c1ccccc1)c1ccccc1 [Example 8az] |  |  | < 300 | < 1000 |  |
| COc1ccc(-c2ccc3c(N4CCOCC4)nc(N4C[C@@H](C)O[C@@H](C)C4)nc3n2)cc1CNC1CC1 [Example 8b] |  |  | < 300 | < 100 |  |
| COc1ccc(-c2ccc3c(N4CCOCC4)nc(N4C[C@@H](C)O[C@@H](C)C4)nc3n2)cc1CNc1ccc(OCc2ccccc2)cc1 [Example 8ba] |  |  | < 300 | < 1000 |  |
| COc1ccc(-c2ccc3c(N4CCOCC4)nc(N4C[C@@H](C)O[C@@H](C)C4)nc3n2)cc1CNCC(O)c1cccc(O)c1 (stereo partly shown) [Example 8bb] |  |  | < 300 | < 100 |  |
| COc1ccc(-c2ccc3c(N4CCOCC4)nc(N4C[C@@H](C)O[C@@H](C)C4)nc3n2)cc1CNCCCc1ccccc1 [Example 8bc] |  |  | < 300 | < 100 |  |
| COc1ccc(-c2ccc3c(N4CCOCC4)nc(N4C[C@@H](C)O[C@@H](C)C4)nc3n2)cc1CN[C@H](CO)CCSC [Example 8bd] |  |  | < 300 | < 1000 |  |
| COC[C@H](Cc1ccccc1)NCc1cc(-c2ccc3c(N4CCOCC4)nc(N4C[C@@H](C)O[C@@H](C)C4)nc3n2)ccc1OC [Example 8be] |  |  | < 300 | < 100 |  |
| CCCCCOc1ccc(NCc2cc(-c3ccc4c(N5CCOCC5)nc(N5C[C@@H](C)O[C@@H](C)C5)nc4n3)ccc2OC)cc1 [Example 8bf] |  |  | < 300 | < 1000 |  |
| COc1ccc(-c2ccc3c(N4CCOCC4)nc(N4C[C@@H](C)O[C@@H](C)C4)nc3n2)cc1CNCc1ccc2c(c1)OCO2 [Example 8bg] |  |  | < 300 | < 100 |  |
| COc1ccc(-c2ccc3c(N4CCOCC4)nc(N4C[C@@H](C)O[C@@H](C)C4)nc3n2)cc1CNCCc1cnc[nH]1 [Example 8c] |  |  |  | < 100 | < 1000 |
| COc1ccc(-c2ccc3c(N4CCOCC4)nc(N4C[C@@H](C)O[C@@H](C)C4)nc3n2)cc1CNCCO [Example 8d] |  |  | < 300 | < 100 |  |
| COc1ccc(CCNCc2cc(-c3ccc4c(N5CCOCC5)nc(N5C[C@@H](C)O[C@@H](C)C5)nc4n3)ccc2OC)cc1 [Example 8e] |  |  |  | < 100 | < 1000 |
| CNCc1cc(-c2ccc3c(N4CCOCC4)nc(N4C[C@@H](C)O[C@@H](C)C4)nc3n2)ccc1OC [Example 8f] |  |  | < 300 | < 100 |  |
| COc1ccc(-c2ccc3c(N4CCOCC4)nc(N4C[C@@H](C)O[C@@H](C)C4)nc3n2)cc1CNCC1CC1 [Example 8g] |  |  | < 300 | < 100 |  |
| CCN(CC)CCCNCc1cc(-c2ccc3c(N4CCOCC4)nc(N4C[C@@H](C)O[C@@H](C)C4)nc3n2)ccc1OC [Example 8h] |  |  |  | < 100 | < 1000 |

Reference: patent US20080194546A1, “Pyrido-, Pyrazo- and Pyrimido-Pyrimidine Derivatives as mTOR Inhibitors” (KuDOS Pharmaceuticals Limited, priority 2005, published 2008)
